Measured values taken from patent US10213415B2, “Compounds as opioid receptor modulators” (JANSSEN PHARMACEUTICA NV, priority 2004, dated 2019).

How the values were obtained:
[1] = target: T1, delta opioid receptor (NG108-15 cell membranes) (Mus musculus, UniProt P32300); test: Delta Opioid Receptor Functional Assay: [35S]GTPγS Binding in NG108-15 Cell Membranes, Version 2; type: biochemical; settings: NG108-15 cell membranes, version 2; for EC50: [35S]GTPγS, read-out: DOR GTP-binding Assay_v2_ EC50; for DOR GTP-binding Assay v2 (% I): % inhibition of agonist-stimulated GTPγS binding
T1 construct: NG108-15 cell membranes were purchased from Applied Cell Sciences (Rockville, Md.); host or cells: NG108-15 cells (membranes purchased)
T1 sequence (P32300 whole entry): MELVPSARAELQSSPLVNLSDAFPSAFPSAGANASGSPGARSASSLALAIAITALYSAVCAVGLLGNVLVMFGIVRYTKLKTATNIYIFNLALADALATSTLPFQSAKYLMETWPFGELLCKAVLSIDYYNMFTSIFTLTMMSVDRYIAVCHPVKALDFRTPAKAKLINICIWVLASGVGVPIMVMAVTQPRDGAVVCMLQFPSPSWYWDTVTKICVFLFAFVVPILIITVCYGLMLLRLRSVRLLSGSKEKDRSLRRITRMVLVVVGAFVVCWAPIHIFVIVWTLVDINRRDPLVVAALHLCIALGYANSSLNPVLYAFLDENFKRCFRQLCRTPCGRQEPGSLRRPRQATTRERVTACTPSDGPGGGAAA
Method: NG108-15 cell membranes were purchased from Applied Cell Sciences (Rockville, Md.). 8 mg/ml of membrane protein suspended in 10 mM TRIS-HC pH 7.2, 2 mM EDTA, 10% sucrose.
(§1) Membranes were maintained at 4-8° C. A portion (1 ml) of membranes was added into 10 ml cold binding assay buffer. The assay buffer contained 50 mM Tris, pH 7.6, 5 mM MgCl2, 100 mM NaCl, 1 mM DTT and 1 mM EGTA. The membrane suspension was homogenized with a Polytron for 2 times and centrifuged at 3000 rpm for 10 min. The supernent was then centrifuged at 18,000 rpm for 20 min. The pellet was saved in a tube and 10 ml assay buffer was added into the tube. The pellet and buffer were mixed with a Polytron.
(§2) The pellet membranes (75 μg/ml) were preincubated with SPA (10 mg/ml) at 25° C. for 45 min in the assay buffer. The SPA (5 mg/ml) coupled with membranes (37.5 μg/ml) was then incubated with 0.1 nM [^35S] GTPγS in the same Tris buffer containing 100 μM GDP in total volume of 200 μl. Increasing concentrations of receptor agonists were used to stimulate [^35S] GTPγS binding. The basal binding was tested in the absent agonists and no specific binding was tested in the present 10 μM unlabeled GTPγS. The data were analyzed on a Top counter.
[formula] % Inhibition=(% stimulation by 1 μM SNC80−% stimulation by 1 μM SNC80 in presence of test compound)×100/(% Stimulation by 1 μM SNC80−100) % of Basal=(stimulate−non specific)*100/(basal−non specific). EC50 values were calculated using GraphPad Prism.

[2] = target: T2, mu opioid receptor (Rattus norvegicus, UniProt P33535); test: Rat Brain Mu Opioid Receptor Binding Assay (and Version 2a, [3H]DAMGO); settings: rat forebrain membranes, margin of error 10-20%, read-out: r Ki μ
T2 construct: from tissue; host or cells: forebrain of male Wistar rats
T2 sequence (P33535 whole entry): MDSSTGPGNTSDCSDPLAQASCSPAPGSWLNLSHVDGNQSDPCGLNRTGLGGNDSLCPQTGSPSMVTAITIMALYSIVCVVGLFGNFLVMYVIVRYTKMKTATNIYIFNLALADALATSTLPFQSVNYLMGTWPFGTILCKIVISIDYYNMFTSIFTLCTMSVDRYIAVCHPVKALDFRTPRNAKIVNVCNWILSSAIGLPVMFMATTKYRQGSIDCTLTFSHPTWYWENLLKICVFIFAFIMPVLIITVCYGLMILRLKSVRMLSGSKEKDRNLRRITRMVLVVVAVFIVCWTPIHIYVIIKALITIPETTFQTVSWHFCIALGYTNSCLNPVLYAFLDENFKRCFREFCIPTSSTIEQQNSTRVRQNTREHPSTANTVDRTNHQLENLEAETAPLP
Outline: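 Rat forebrain membranes from male Wistar rats in 50 mM Tris-HCl pH 7.4 with 5 mM MgCl2 incubated with 0.8 nM [3H]DAMGO for 2.5 h at 25° C., then filtered and counted. Data given as % inhibition of specific binding at single concentrations or as Ki from concentration series.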

[3] = target: T3, delta opioid receptor (Rattus norvegicus, UniProt P33533); test: Rat Brain Delta Opioid Receptor Binding Assay ([3H]DPDPE); settings: rat forebrain membranes, margin of error 10-20%, read-out: r Ki δ
T3 construct: from tissue; host or cells: forebrain of male Wistar rats
T3 sequence (P33533 whole entry): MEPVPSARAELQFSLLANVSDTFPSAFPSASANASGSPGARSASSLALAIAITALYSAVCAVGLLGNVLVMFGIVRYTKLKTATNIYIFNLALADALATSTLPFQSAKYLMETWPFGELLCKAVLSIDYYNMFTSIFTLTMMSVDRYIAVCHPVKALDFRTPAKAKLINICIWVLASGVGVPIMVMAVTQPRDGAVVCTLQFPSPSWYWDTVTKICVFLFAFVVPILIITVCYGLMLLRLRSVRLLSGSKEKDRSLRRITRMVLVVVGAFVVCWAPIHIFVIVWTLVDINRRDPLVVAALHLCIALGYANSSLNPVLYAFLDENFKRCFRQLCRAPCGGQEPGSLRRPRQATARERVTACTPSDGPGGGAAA
Outline: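 Rat (male Wistar) forebrain membranes in 50 mM Tris-HCl pH 7.4 with 5 mM MgCl2, incubated with ~4 nM [3H]DPDPE for 2.5 h at 25 °C. Bound ligand collected by filtration and scintillation counting. Single-concentration data given as % inhibition of specific binding; concentration series fitted to Ki.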

[4] = target: T4, human mu opioid receptor (Homo sapiens, UniProt P35372); test: Human Mu Opioid Receptor Binding Assay (CHO membranes, 3H-Damgo); settings: read-out: hKi μ
T4 construct: purchased Perkin Elmer RBHOMM400UA; host or cells: Chinese Hamster Ovary cells (recombinant expression)
T4 sequence (P35372 whole entry): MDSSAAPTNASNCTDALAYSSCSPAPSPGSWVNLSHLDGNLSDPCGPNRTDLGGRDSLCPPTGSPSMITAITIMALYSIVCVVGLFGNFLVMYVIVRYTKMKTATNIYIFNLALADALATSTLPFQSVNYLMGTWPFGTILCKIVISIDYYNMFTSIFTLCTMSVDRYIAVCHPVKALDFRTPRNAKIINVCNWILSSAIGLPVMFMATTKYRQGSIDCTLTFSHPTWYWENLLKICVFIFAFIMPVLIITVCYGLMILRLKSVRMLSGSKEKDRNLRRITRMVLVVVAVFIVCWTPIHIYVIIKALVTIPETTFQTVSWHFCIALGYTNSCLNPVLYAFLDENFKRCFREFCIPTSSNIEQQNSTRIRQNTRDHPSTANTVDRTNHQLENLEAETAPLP
Outline: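 Membranes from CHO cells expressing human mu opioid receptor, 300 μg/mL, in 50 mM Tris pH 7.5, 5 mM MgCl2. Incubated with compound and ³H-Damgo (3.6 nM before mixing) for 2 h at room temperature, filtered, counted by scintillation. Nonspecific binding with 1 μM unlabelled Damgo.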

[5] = target: T5, mu opioid receptor (CHO-hMOR cell membranes) (Homo sapiens, UniProt P35372); test: Mu Opioid Receptor Functional Assay: [35S]GTPγS Binding in CHO-hMOR Cell Membranes, Versions 1 and 2; type: biochemical; settings: for MOR GTP binding assay_v2 (% I): version 2, % inhibition of agonist-stimulated GTPγS binding; for EC50: version 2, read-out: MOR GTP binding assay v2 EC50
T5 construct: purchased Receptor Biology, Inc. (Baltimore, Md.); host or cells: CHO cells (recombinant expression)
T5 sequence (P35372 whole entry): as above
Outline: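 CHO-hMOR membranes (10 μg/ml) on WGA SPA beads, preincubated 45 min at 25 °C, then incubated with 0.5 nM [35S]GTPγS in HEPES pH 7.6, 5 mM MgCl2, 100 mM NaCl, 1 mM DTT, 1 mM EDTA. Non-specific binding with 10 μM unlabeled GTPγS; agonist EC50 from concentration-response, antagonism as inhibition of 1 μM SNC80-stimulated binding.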

[6] = target: T6, delta opioid receptor (CHO-hδ cell membranes) (Homo sapiens, UniProt P41143); test: Delta Opioid Receptor Functional Assay: [35S]GTPγS Binding in CHO-hδ Cell Membranes, Version 1; type: biochemical; settings: read-out: DOR GTP-binding Assay_v1 EC50
T6 construct: purchased Receptor Biology, Inc. (Baltimore, Md.); host or cells: CHO cells (recombinant expression)
T6 sequence (P41143 whole entry): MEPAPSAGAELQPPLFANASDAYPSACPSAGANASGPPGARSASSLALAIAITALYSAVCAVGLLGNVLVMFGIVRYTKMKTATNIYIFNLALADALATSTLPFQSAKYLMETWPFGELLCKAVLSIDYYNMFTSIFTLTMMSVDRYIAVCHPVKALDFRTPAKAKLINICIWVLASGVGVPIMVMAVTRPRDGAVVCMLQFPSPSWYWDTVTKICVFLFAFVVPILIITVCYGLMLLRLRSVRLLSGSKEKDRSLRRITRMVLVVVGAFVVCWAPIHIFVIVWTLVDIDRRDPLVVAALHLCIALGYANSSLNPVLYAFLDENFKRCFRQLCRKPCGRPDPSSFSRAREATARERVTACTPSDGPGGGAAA
Method: CHO-hδ cell membranes were purchased from Receptor Biology, Inc. (Baltimore, Md.). 10 mg/ml of membrane protein suspended in 10 mM TRIS-HC pH 7.2, 2 mM EDTA, 10% sucrose.
as §1, with “into 15 mL” for “into 10 ml”, “mM HEPES,” for “mM Tris,”, “mM EDTA.” for “mM EGTA.”
as §2, with “(20” for “(75”, “(10” for “(37.5”, “0.5” for “0.1”, “[^35S]GTPγS” for “[^35S] GTPγS”, “HEPES” for “Tris”, “50” for “100”
Data The % of Basal=(stimulate−non specific)*100/(basal−non specific). EC50 values were calculated using a Prism program.

Structure (SMILES)	EC50 [1] [nM]	DOR GTP-binding Assay v2 (% I) [1] [%]	Ki [2] [nM]	Ki [3] [nM]	Ki [4] [nM]	MOR GTP binding assay_v2 (% I) [5] [%]	EC50 [5] [nM]	MOR GTP binding assay_v1 (% I) ([5]; version 1, % inhibition of agonist-stimulated GTPγS binding) [%]	MOR GTP assay_v1 % of Basal ([5]; version 1, basal binding = 100%) [%]	EC50 [6] [nM]
Cc1cc(O)cc(C)c1C[C@H](N)C(=O)N(Cc1ccc(OC(F)(F)F)cc1)[C@@H](C)c1nc(-c2ccccc2)c[nH]1 [Cpd 248]	15	31.72	0.11	0.44	–	–	–	–	–	–
Cc1cc(O)cc(C)c1C[C@H](N)C(=O)N(Cc1ccc(OC(C)C)cc1)[C@@H](C)c1nc(-c2ccccc2)c[nH]1 [Cpd 250]	10	34.93	0.06	0.21	–	–	–	–	–	–
COc1cc(CN(C(=O)[C@@H](N)Cc2c(C)cc(C(N)=O)cc2C)[C@@H](C)c2nc(-c3ccccc3)c[nH]2)ccc1C(=O)O [Cpd 14]	0.6	59.70	–	0.36	4.7	–	–	–	–	–
CCOc1cccc(CN(C(=O)[C@@H](N)Cc2c(C)cc(O)cc2C)[C@@H](C)c2nc(-c3ccccc3)c[nH]2)c1 [Cpd 251]	18	53.94	0.08	0.26	–	–	–	–	–	–
Cc1cc(C(N)=O)cc(C)c1C[C@H](N)C(=O)N(Cc1ccccc1C(N)=O)[C@@H](C)c1nc(-c2ccccc2)c[nH]1 [Cpd 1]	88	22.10	1.1	13.2	3.6	–	–	–	–	–
Cc1cc(C(N)=O)cc(C)c1C[C@H](N)C(=O)N(Cc1ccccc1C(=O)O)[C@@H](C)c1nc(-c2ccccc2)c[nH]1 [Cpd 226]	> 10000	19.71	–	48	7.91	–	–	–	–	–
COc1ccc(CN(C(=O)[C@@H](N)Cc2c(C)cc(C(N)=O)cc2C)[C@@H](C)c2nc(-c3ccccc3)c[nH]2)cc1C(=O)NC1CC1 [Cpd 300]	32	–	0.09	0.29	–	15.40	2.6	–	–	–
COc1ccc(CN(C(=O)[C@@H](N)Cc2c(C)cc(C(N)=O)cc2C)[C@@H](C)c2nc(-c3ccccc3C(=O)O)c[nH]2)cc1OC [Cpd 29]	> 10000	79.05	25	28	38	–	–	–	–	–
COc1ccc(CN(C(=O)[C@@H](N)Cc2c(C)cc(C(N)=O)cc2C)[C@@H](C)c2nc(-c3ccc(Br)cc3)c[nH]2)cc1C(=O)O [Cpd 291]	> 10000	96.52	0.47	0.12	–	–	–	–	–	–
COc1ccc(CN(C(=O)[C@@H](N)Cc2c(C)cc(C(N)=O)cc2C)[C@@H](C)c2nc(-c3cccc(Br)c3)c[nH]2)cc1C(=O)O [Cpd 288]	> 10000	74.54	0.43	0.17	–	–	–	–	–	–
Cc1cc(O)cc(C)c1C[C@H](N)C(=O)N(C)[C@@H](CC(C)C)c1nc(-c2ccccc2)c[nH]1 [Cpd 174]	–	–	–	–	–	–	–	42.00	864.00	20
Cc1cc(O)cc(C)c1C[C@H](N)C(=O)N(Cc1ccc(C(F)(F)F)cc1)[C@@H](C)c1nc(-c2ccccc2)c[nH]1 [Cpd 249]	8	20.14	0.12	0.18	–	–	–	–	–	–
COc1ccc(CN(C(=O)[C@@H](N)Cc2c(C)cc(C(N)=O)cc2C)[C@@H](C)c2nc(-c3ccc(Cl)cc3)c(C)[nH]2)cc1C(=O)O [Cpd 239]	> 10000	–	0.44	0.1	–	–	–	–	–	–
COc1ccc(CN(C(=O)[C@@H](N)Cc2c(C)cc(C(N)=O)cc2C)[C@@H](C)c2nc(-c3ccccc3)c[nH]2)cc1C(=O)N1CCOCC1 [Cpd 296]	7.9	69.41	0.49	2.2	–	9.35	2.2	–	–	–
COc1ccc(CN(C(=O)[C@@H](N)Cc2c(C)cc(C(N)=O)cc2C)[C@@H](C)c2nc(-c3ccccc3Br)c[nH]2)cc1C(=O)O [Cpd 290]	> 10000	52.41	0.43	0.69	–	–	–	–	–	–
COC(=O)c1ccc(CN(C(=O)[C@@H](N)Cc2c(C)cc(O)cc2C)[C@@H](C)c2nc(-c3ccccc3)c[nH]2)o1 [Cpd 286]	2.6	34.65	0.05	0.11	–	–	–	–	–	–
C[C@@H](c1nc(-c2ccccc2)c[nH]1)N(Cc1cccc(-c2nnn[nH]2)c1)C(=O)[C@@H](N)Cc1ccc(C(N)=O)cc1 [Cpd 267]	6	31.76	1.53	0.46	6.88	–	–	–	–	–
COc1cc(CN(C(=O)[C@@H](N)Cc2c(C)cc(C(N)=O)cc2C)[C@@H](C)c2nc(-c3ccccc3)c[nH]2)c(C(=O)O)cc1OC [Cpd 230]	48.9	–	5	10	–	–	–	–	–	–
COc1ccc(CN(C(=O)[C@@H](N)Cc2c(C)cc(C(N)=O)cc2C)[C@@H](C)c2nc(-c3ccccc3)c[nH]2)cc1C(N)=O [Cpd 295]	2.2	71.66	0.18	3.95	–	8.21	1.4	–	–	–
COc1ccc(CN(C(=O)[C@@H](N)Cc2c(C)cc(O)cc2C)[C@@H](C)c2nc(-c3ccccc3)c[nH]2)c2ccccc12 [Cpd 247]	44	41.89	0.61	0.4	–	–	–	–	–	–
COC(=O)c1cccc(CN(C(=O)[C@@H](N)Cc2c(C)cc(C(N)=O)cc2C)[C@@H](C)c2nc(-c3ccccc3)c[nH]2)c1 [Cpd 9]	3.4	67.13	0.16	0.11	10.9	–	–	–	–	–
COc1ccc(CN(C(=O)[C@@H](N)Cc2c(C)cc(C(N)=O)cc2C)[C@@H](C)c2nc(-c3ccccc3)c[nH]2)cc1C(=O)NCCO [Cpd 299]	2.3	–	0.44	1.16	–	12.11	1	–	–	–
